The values that follow come from ChEMBL document CHEMBL1148228, “Synthesis of N tau-arylhistidine derivatives via direct N-arylation” (Bioorg Med Chem Lett, 2004).

The species named for the test is Oryctolagus cuniculus. The experiment in a line: Inhibitory concentration of compound against antigen binding site in immunized rabbits. The class given is functional, organism-based.

Compound `CC(=O)NC(Cc1cn(-c2ccc(Br)cc2)cn1)C(=O)O` (stereo unspecified) showed an IC50 of around 1000 nM.
